Measured values published in the NIST ThermoML archive (doi:10.1021/acs.jced.8b01110).
Numbers after ± are expanded uncertainties.

Experiments:
[1] = refractive index (Na D-line) (dimensionless); wn = mass fraction of the nth substance listed; conditions: 313.15 K, 88.4 kPa, Liquid, Standard Abbe refractometry
[2] = wn = mass fraction of the nth substance listed; conditions: 313.15 K, 88.4 kPa, Liquid; for viscosity: Capillary tube (Ostwald / Ubbelohde) method; for mass density: Pycnometric method

In the case of O=S(=O)([O-])[O-].[Na+].[Na+] [sodium sulfate] + O, the refractive index ([1]; w1 = 0.3289) is reported as 1.37791 ± 0.00085, the viscosity ([2]; w1 = 0.3289) is reported as 2.703 ± 0.54 mPa·s and the mass density ([2]; w1 = 0.3289) is reported as 1317 ± 10 kg/m3.

For O=[N+]([O-])[O-].[Na+] [sodium nitrate] + O, the refractive index ([1]; w1 = 0.5082) was 1.39164 ± 0.00086, the viscosity ([2]; w1 = 0.5082) was 2.14 ± 0.43 mPa·s and the mass density ([2]; w1 = 0.5082) was 1408.4 ± 10 kg/m3.
